# Test results reported in patent US9149038B2, “4-amino-6-(heterocyclic)picolinates and 6-amino-2-(heterocyclic)pyrimidine-4-carboxylates and their use as herbicides” (Dow AgroSciences LLC, priority 2013, dated 2015).
# Read-outs that look alike come from different tables or passages of the source.
# Tested on: Wheat and Barley and weed species
# Assay: Post-Emergent Test III: postemergent herbicidal activity in wheat and barley, visual rating after 21 d and probit GR20/GR50/GR80/GR90 (Tables 9-13)
# Type: in vivo
# Settings: for pest or weed control at 17.5 g/ha / pest or weed control at 35 g/ha / pest or weed control at 70 g/ha: post-emergence, 504 h
# Description: Herbicidal evaluations were made visually on a scale of 0 to 100 where 0 represents no activity and 100 represents complete plant death.
# Seeds of the desired test plant species were planted in Sun Gro MetroMix® 306 planting mixture, which typically has a pH of 6.0 to 6.8 and an organic matter content of about 30 percent, in plastic pots with a surface area of 103.2 square centimeters (cm^2). When required to ensure good germination and healthy plants, a fungicide treatment and/or other chemical or physical treatment was applied. The plants were grown for 7-36 days (d) in a greenhouse with an approximate 14 hour (h) photoperiod which was maintained at about 18° C. during the day and 17° C. during the night. Nutrients and water were added on a regular basis and supplemental lighting was provided with overhead metal halide 1000-Watt lamps as necessary. The plants were employed for testing when they reached the second or third true leaf stage.
# A weighed amount, determined by the highest rate to be tested, of each test compound was placed in a 25 mL glass vial and was dissolved in 4 mL of a 97:3 v/v mixture of acetone and DMSO to obtain concentrated stock solutions. […] The concentrated stock solutions obtained were diluted with 20 mL of an aqueous mixture containing acetone, water, isopropyl alcohol, DMSO, Agri-Dex crop oil concentrate, and X-77 surfactant in a 48:39:10:1.5:1.5:0.02 v/v ratio to obtain spray solutions containing the highest application rates. Additional application rates were obtained by serial dilution of 12 mL of the high rate solution into a solution containing 2 mL of a 97:3 v/v mixture of acetone and DMSO and 10 mL of an aqueous mixture containing acetone, water, isopropyl alcohol, DMSO, Agri-Dex crop oil concentrate, and X-77 surfactant in a 48:39:10:1.5:1.5:0.02 v/v ratio to obtain ½×, ¼×, ⅛× and 1/16× rates of the high rate. Compound requirements are based upon a 12 mL application volume at a rate of 187 liters per hectare (L/ha). Formulated compounds were applied to the plant material with an overhead Mandel track sprayer equipped with 8002E nozzles calibrated to deliver 187 L/ha over an application area of 0.503 square meters at a spray height of 18 inches (43 cm) above the average plant canopy height. Control plants were sprayed in the same manner with the solvent blank.
# The treated plants and control plants were placed in a greenhouse as described above and watered by subirrigation to prevent wash-off of the test compounds. After 21 d, the condition of the test plants as compared with that of the untreated plants was determined visually and scored on a scale of 0 to 100 percent where 0 corresponds to no injury and 100 corresponds to complete kill and are presented as indicated in Table 4.
# By applying the well-accepted probit analysis as described by J. Berkson in Journal of the American Statistical Society, 48, 565 (1953) and by D. Finney in “Probit Analysis” Cambridge University Press (1952), herbicidal injury of a specific compound at various rates can be used to calculate GR20, GR50, GR80 and GR90 values, which are defined as growth reduction factors that correspond to the effective dose of herbicide required to provide plant growth reduction (GR) of 20 percent, 50 percent, 80 percent and 90 percent, respectively. Probit analysis was applied to data collected from multiple dose rates of individual compounds utilizing the procedures explained in the following examples. The data for some of the dose rates and analysis of all of the dose rates are captured in the following tables.
smiles,measurement,setting,value
Nc1c(F)c(-c2cc3c(cc2F)OC(F)(F)O3)nc(C(=O)O)c1Cl [Compound 13],GR50 ALOMY,"ALOMY black-grass (Alopecurus myosuroides), growth reduction of 50%, probit analysis",20 g ai/ha
same,GR80 ALOMY,"ALOMY black-grass (Alopecurus myosuroides), growth reduction of 80%, probit analysis",40 g ai/ha
same,GR90 ALOMY,"ALOMY black-grass (Alopecurus myosuroides), growth reduction of 90%, probit analysis",57 g ai/ha
same,GR50 APESV,"APESV bentgrass (Apera spica-venti), growth reduction of 50%, probit analysis",>70 g ai/ha
same,GR80 APESV,"APESV bentgrass (Apera spica-venti), growth reduction of 80%, probit analysis",>70 g ai/ha
same,GR90 APESV,"APESV bentgrass (Apera spica-venti), growth reduction of 90%, probit analysis",>70 g ai/ha
same,GR20 HORVS,"HORVS barley, spring (crop), growth reduction of 20%, probit analysis",2 g ai/ha
same,pest or weed control at 17.5 g/ha,"Hordeum vulgare, HORVS barley, spring (crop), 17.5 g ai/ha, read-out: Visual Growth Reduction (%) 21 Days After Application HORVS",60 to 74%
same,pest or weed control at 35 g/ha,"Hordeum vulgare, HORVS barley, spring (crop), 35 g ai/ha, read-out: Visual Growth Reduction (%) 21 Days After Application HORVS",75 to 84%
same,pest or weed control at 70 g/ha,"Hordeum vulgare, HORVS barley, spring (crop), 70 g ai/ha, read-out: Visual Growth Reduction (%) 21 Days After Application HORVS",85 to 94%
same,GR50 LOLSS,"LOLSS ryegrass, growth reduction of 50%, probit analysis",>70 g ai/ha
same,GR80 LOLSS,"LOLSS ryegrass, growth reduction of 80%, probit analysis",>70 g ai/ha
same,GR90 LOLSS,"LOLSS ryegrass, growth reduction of 90%, probit analysis",>70 g ai/ha
same,Visual Growth Reduction (%) 21 Days After Application MATCH,"MATCH wild chamomile (Matricaria recutita L.), 17.5 g ai/ha",G (0-29)
same,Visual Growth Reduction (%) 21 Days After Application MATCH,"MATCH wild chamomile (Matricaria recutita L.), 35 g ai/ha",F (30-44)
same,Visual Growth Reduction (%) 21 Days After Application MATCH,"MATCH wild chamomile (Matricaria recutita L.), 70 g ai/ha",D (60-74)
same,GR50 MATCH,"MATCH wild chamomile (Matricaria recutita L.), growth reduction of 50%, probit analysis",58 g ai/ha
same,GR80 MATCH,"MATCH wild chamomile (Matricaria recutita L.), growth reduction of 80%, probit analysis",>70 g ai/ha
same,GR90 MATCH,"MATCH wild chamomile (Matricaria recutita L.), growth reduction of 90%, probit analysis",>70 g ai/ha
same,GR50 SETVI,"SETVI green foxtail (Setaria viridis), growth reduction of 50%, probit analysis",4 g ai/ha
same,GR80 SETVI,"SETVI green foxtail (Setaria viridis), growth reduction of 80%, probit analysis",20 g ai/ha
same,GR90 SETVI,"SETVI green foxtail (Setaria viridis), growth reduction of 90%, probit analysis",45 g ai/ha
same,GR20 TRZAS,"TRZAS wheat, spring (crop), growth reduction of 20%, probit analysis",2 g ai/ha
same,pest or weed control at 17.5 g/ha,"Triticum aestivum, TRZAS wheat, spring (crop), 17.5 g ai/ha, read-out: Visual Growth Reduction (%) 21 Days After Application TRZAS",60 to 74%
same,pest or weed control at 35 g/ha,"Triticum aestivum, TRZAS wheat, spring (crop), 35 g ai/ha, read-out: Visual Growth Reduction (%) 21 Days After Application TRZAS",75 to 84%
same,pest or weed control at 70 g/ha,"Triticum aestivum, TRZAS wheat, spring (crop), 70 g ai/ha, read-out: Visual Growth Reduction (%) 21 Days After Application TRZAS",75 to 84%
same,Visual Growth Reduction (%) 21 Days After Application VERPE,"VERPE bird's-eye speedwell (veronica persica), 17.5 g ai/ha",C (75-84)
same,Visual Growth Reduction (%) 21 Days After Application VERPE,"VERPE bird's-eye speedwell (veronica persica), 35 g ai/ha",B (85-94)
same,Visual Growth Reduction (%) 21 Days After Application VERPE,"VERPE bird's-eye speedwell (veronica persica), 70 g ai/ha",A (95-100)
same,GR50 VERPE,"VERPE bird's-eye speedwell (veronica persica), growth reduction of 50%, probit analysis",3 g ai/ha
same,GR80 VERPE,"VERPE bird's-eye speedwell (veronica persica), growth reduction of 80%, probit analysis",16 g ai/ha
same,GR90 VERPE,"VERPE bird's-eye speedwell (veronica persica), growth reduction of 90%, probit analysis",37 g ai/ha
same,pest or weed control at 17.5 g/ha,"ALOMY black-grass (Alopecurus myosuroides), 17.5 g ai/ha, read-out: Visual Growth Reduction (%) 21 Days After Application ALOMY",45 to 59%
same,pest or weed control at 35 g/ha,"ALOMY black-grass (Alopecurus myosuroides), 35 g ai/ha, read-out: Visual Growth Reduction (%) 21 Days After Application ALOMY",60 to 74%
same,pest or weed control at 70 g/ha,"ALOMY black-grass (Alopecurus myosuroides), 70 g ai/ha, read-out: Visual Growth Reduction (%) 21 Days After Application ALOMY",95 to 100%
same,pest or weed control at 17.5 g/ha,"APESV bentgrass (Apera spica-venti), 17.5 g ai/ha, read-out: Visual Growth Reduction (%) 21 Days After Application APESV",0 to 29%
same,pest or weed control at 35 g/ha,"APESV bentgrass (Apera spica-venti), 35 g ai/ha, read-out: Visual Growth Reduction (%) 21 Days After Application APESV",45 to 59%
same,pest or weed control at 70 g/ha,"APESV bentgrass (Apera spica-venti), 70 g ai/ha, read-out: Visual Growth Reduction (%) 21 Days After Application APESV",60 to 74%
same,pest or weed control at 17.5 g/ha,"LOLSS ryegrass, 17.5 g ai/ha, read-out: Visual Growth Reduction (%) 21 Days After Application LOLSS",0 to 29%
same,pest or weed control at 35 g/ha,"LOLSS ryegrass, 35 g ai/ha, read-out: Visual Growth Reduction (%) 21 Days After Application LOLSS",0 to 29%
same,pest or weed control at 70 g/ha,"LOLSS ryegrass, 70 g ai/ha, read-out: Visual Growth Reduction (%) 21 Days After Application LOLSS",0 to 29%
same,pest or weed control at 17.5 g/ha,"SETVI green foxtail (Setaria viridis), 17.5 g ai/ha, read-out: Visual Growth Reduction (%) 21 Days After Application SETVI",60 to 74%
same,pest or weed control at 35 g/ha,"SETVI green foxtail (Setaria viridis), 35 g ai/ha, read-out: Visual Growth Reduction (%) 21 Days After Application SETVI",75 to 84%
same,pest or weed control at 70 g/ha,"SETVI green foxtail (Setaria viridis), 70 g ai/ha, read-out: Visual Growth Reduction (%) 21 Days After Application SETVI",95 to 100%
